Here are results for 24 compounds from US12257247B2 (Monte Rosa Therapeutics AG, priority 2023, dated 2025).

The assay addresses T1, VAV1 (Homo sapiens, UniProt P15498+Q96SW2).
T1 construct: A heterozygous VAV1 C-terminal HiBiT knock-in pool was generated at Monte Rosa Therapeutics from a clonal Jurkat cell; endogenous in cells; host or cells: Jurkat clone stably expressing LgBiT, homozygous GSPT1-G575N; heterozygous VAV1-HiBiT knock-in pool
Description: VAV1 degradation activity, VAV1-HiBiT knock-in Jurkat luminescence assay (Example A, Table 1). Type of assay: cell-based. As to conditions: VAV1-HiBiT knock-in Jurkat cells, luminescence read at 6 and 24 hours; for Dmax: Jurkat. The method in brief: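 Jurkat cells carrying VAV1-HiBiT knock-in, plated in RPMI/10% FBS with Endurazine live-cell substrate and pre-incubated ~16 h at 37° C. Compound dosed from 10 μM stock; luminescence read 6 and 24 h later. Response normalised to plate negative/positive controls, EC50 from 3-parameter logistic fit (hillslope 1).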
In general terms: With HiBiT, luminescence reflects the tagged protein that the partner subunit can reach.

[1] abbreviates: read-out: VAV1 DC50 (nM), class.

Like-named read-outs stand apart in the source and are kept apart here. Where only a bound is given, the exact number is not on record here.

Broadly, the Dmax is the largest share of the target that was removed. The term DC50 denotes the concentration at which degradation of the target reaches its halfway point. As to `O=C1CCC(c2cccc(-c3ccc(Cc4ncco4)nc3)c2Cl)C(=O)N1` (stereo not drawn) [Compound 430, 3-(2-chloro-3-(6-(oxazol-2-ylmethyl)pyridin-3-yl)phenyl)piperidine-2,6-dione], the Dmax is, setting by setting: (read-out: VAV1 Dmax %) 72.6%; (read-out: VAV1 Dmax %, class) 60 to 90%. Moreover, the DC50 was 261 nM (read-out: VAV1 DC50) and 100 to 1000 nM under setting [1].
For `O=C1CCC(c2cccc(-c3ccc(CN4CCCOC4=O)nc3)c2Cl)C(=O)N1` (stereo not drawn) [Compound 431, 3-(2-chloro-3-(6-((2-oxo-1,3-oxazinan-3-yl)methyl)pyridin-3-yl)phenyl)piperidine-2,6-dione], the Dmax is 23.5% (read-out: VAV1 Dmax %) and less than 60% (read-out: VAV1 Dmax %, class). For the same compound, the DC50 was no less than 10000 nM (read-out: VAV1 DC50) and greater than 1000 nM under setting [1].
The like results for `CN1CCCN(Cc2ccc(-c3cccc(C4CCC(=O)NC4=O)c3Cl)cn2)C1=O` (stereo not drawn) [Compound 432, 3-(2-chloro-3-(6-((3-methyl-2-oxotetrahydropyrimidin-1(2H)-yl)methyl)pyridin-3-yl)phenyl)piperidine-2,6-dione] were, in that order, 71.9%, 60 to 90%, 182 nM and 100 to 1000 nM.
The like results for `O=C1CCC(c2cccc(-c3ccc(CN4CCCCC4=O)nc3)c2Cl)C(=O)N1` (stereo not drawn) [Compound 433, 3-(2-chloro-3-(6-((2-oxopiperidin-1-yl)methyl)pyridin-3-yl)phenyl)piperidine-2,6-dione] were, in that order, 33.6%, less than 60%, no less than 10000 nM and greater than 1000 nM.
The like results for `O=C1CCC(c2cccc(-c3ccc(Cn4cccnc4=O)nc3)c2Cl)C(=O)N1` (stereo not drawn) [Compound 434, 3-(2-chloro-3-(6-((2-oxopyrimidin-1(2H)-yl)methyl)pyridin-3-yl)phenyl)piperidine-2,6-dione] were, in that order, 46.2%, less than 60%, no less than 10000 nM and greater than 1000 nM.
For the compound `CN1CCCN(c2ccc(-c3cccc(C4CCC(=O)NC4=O)c3Cl)cn2)C1=O` (stereo not drawn) [Compound 435, 3-(2-chloro-3-(6-(3-methyl-2-oxotetrahydropyrimidin-1(2H)-yl)pyridin-3-yl)phenyl)piperidine-2,6-dione], the Dmax reads like this: (read-out: VAV1 Dmax %) 70.8%; (read-out: VAV1 Dmax %, class) 60 to 90%. Besides, the DC50 was 330 nM (read-out: VAV1 DC50) and 100 to 1000 nM under setting [1].
The corresponding values for `CN1CCCN(c2ccc(-c3cccc(C4CCC(=O)NC4=O)c3Cl)cc2F)C1=O` (stereo not drawn) [Compound 436, 3-(2-chloro-3′-fluoro-4′-(3-methyl-2-oxotetrahydropyrimidin-1(2H)-yl)-[1,1′-biphenyl]-3-yl)piperidine-2,6-dione] are 96%, greater than 90%, 8.75 nM and no more than 100 nM.
The like results for `Cc1ccnc(Cc2ccc(-c3cccc(C4CCC(=O)NC4=O)c3Cl)cc2)n1` (stereo not drawn) [Compound 437, 3-(2-chloro-4′-((4-methylpyrimidin-2-yl)methyl)-[1,1′-biphenyl]-3-yl)piperidine-2,6-dione] were, in that order, 96.5%, greater than 90%, 5.92 nM and no more than 100 nM.
The corresponding values for `O=C1CCC(c2cccc(-c3ccc(S(=O)(=O)N4CCCC4)cc3)c2Cl)C(=O)N1` (stereo not drawn) [Compound 438, 3-(2-chloro-4′-(pyrrolidin-1-ylsulfonyl)-[1,1′-biphenyl]-3-yl) piperidine-2,6-dione] are 90.5%, greater than 90%, 91.7 nM and no more than 100 nM.
Turning to `CN1Cc2cccc(-c3ccc(-c4cccc(C5CCC(=O)NC5=O)c4Cl)cc3)c2C1=O` (stereo not drawn) [Compound 439, 3-(2-chloro-4′-(2-methyl-3-oxoisoindolin-4-yl)-[1,1′-biphenyl]-3-yl)piperidine-2,6-dione], the Dmax reads like this: (read-out: VAV1 Dmax %) 89.3%; (read-out: VAV1 Dmax %, class) 60 to 90%. For the same compound, the DC50 (read-out: VAV1 DC50) turned out to be 4.48 nM and the DC50 under setting [1] is no more than 100 nM.
Take `CC1(Cc2ccc(-c3cccc(C4CCC(=O)NC4=O)c3Cl)cc2)COC1` (stereo not drawn) [Compound 440, 3-(2-chloro-4′-((3-methyloxetan-3-yl)methyl)-[1,1′-biphenyl]-3-yl)piperidine-2,6-dione]: the Dmax by setting is: (read-out: VAV1 Dmax %) 94.3%; (read-out: VAV1 Dmax %, class) greater than 90%. In addition, the DC50 was 21.7 nM (read-out: VAV1 DC50) and no more than 100 nM under setting [1].
`C[C@@H]1COCC(=O)N1c1ccc(-c2cccc(C3CCC(=O)NC3=O)c2Cl)cc1` (stereo partly drawn) [Compound 441, 3-(2-chloro-4′-((R)-3-methyl-5-oxomorpholino)-[1,1′-biphenyl]-3-yl)piperidine-2,6-dione]: the Dmax is 90.5% (read-out: VAV1 Dmax %) and greater than 90% (read-out: VAV1 Dmax %, class). For the same compound, the DC50 runs as follows: (read-out: VAV1 DC50) 14.2 nM; under setting [1], no more than 100 nM.
The corresponding values for `O=C1CCC(c2cccc(-c3ccc(Cc4cocn4)cc3)c2Cl)C(=O)N1` (stereo not drawn) [Compound 442, 3-(2-chloro-4′-(oxazol-4-ylmethyl)-[1,1′-biphenyl]-3-yl)piperidine-2,6-dione] are 95.8%, greater than 90%, 34.5 nM and no more than 100 nM.
The like results for `O=C1CCC(c2cccc(-c3ccc(-n4c(C(F)(F)F)cccc4=O)cc3)c2Cl)C(=O)N1` (stereo not drawn) [Compound 443, 3-(2-chloro-4′-(2-oxo-6-(trifluoromethyl)pyridin-1(2H)-yl)-[1,1′-biphenyl]-3-yl)piperidine-2,6-dione] were, in that order, 99.3%, greater than 90%, 2.27 nM and no more than 100 nM.
The corresponding values for `O=C1CCC(c2cccc(-c3ccc(-n4cccc(CC(F)F)c4=O)cc3)c2Cl)C(=O)N1` (stereo not drawn) [Compound 444, 3-(2-chloro-4′-(3-(2,2-difluoroethyl)-2-oxopyridin-1(2H)-yl)-[1,1′-biphenyl]-3-yl)piperidine-2,6-dione] are 97.7%, greater than 90%, 7.1 nM and no more than 100 nM.
Take `O=C1CCC(c2cccc(-c3ccc(N4CCN(CC(F)(F)F)CC4=O)cc3)c2Cl)C(=O)N1` (stereo not drawn) [Compound 445, 3-(2-chloro-4′-(2-oxo-4-(2,2,2-trifluoroethyl)piperazin-1-yl)-[1,1′-biphenyl]-3-yl)piperidine-2,6-dione]: the Dmax was 96% (read-out: VAV1 Dmax %) and greater than 90% (read-out: VAV1 Dmax %, class). In addition, the DC50 runs as follows: (read-out: VAV1 DC50) 11.5 nM; under setting [1], no more than 100 nM.
With `O=C1CCC(c2cccc(-c3ccc(N4CCN(CC(F)F)CC4=O)cc3)c2Cl)C(=O)N1` (stereo not drawn) [Compound 446, 3-(2-chloro-4′-(4-(2,2-difluoroethyl)-2-oxopiperazin-1-yl)-[1,1′-biphenyl]-3-yl)piperidine-2,6-dione], the Dmax (read-out: VAV1 Dmax %) was found to be 95.2% and the Dmax (read-out: VAV1 Dmax %, class) was greater than 90%. For the same compound, the DC50 by setting is: (read-out: VAV1 DC50) 9.83 nM; under setting [1], no more than 100 nM.
The corresponding values for `O=C1CCC(c2cccc(-c3ccc(Cn4ccccc4=O)nc3)c2Cl)C(=O)N1` (stereo not drawn) [Compound 447, 3-(2-chloro-3-(6-((2-oxopyridin-1(2H)-yl)methyl)pyridin-3-yl)phenyl)piperidine-2,6-dione] are 61.9%, 60 to 90%, 741 nM and 100 to 1000 nM.
The corresponding values for `Cc1ccn(C)c(=O)c1-c1ccc(-c2cccc(C3CCC(=O)NC3=O)c2Cl)cc1` (stereo not drawn) [Compound 448, 3-(2-chloro-4′-(1,4-dimethyl-2-oxo-1,2-dihydropyridin-3-yl)-[1,1′-biphenyl]-3-yl)piperidine-2,6-dione] are 98.7%, greater than 90%, 1.63 nM and no more than 100 nM.
The corresponding values for `O=C1CCC(c2cccc(-c3ccc(N4CCCN(CC(F)(F)F)C4=O)cc3)c2Cl)C(=O)N1` (stereo not drawn) [Compound 449, 3-(2-chloro-4′-(2-oxo-3-(2,2,2-trifluoroethyl)tetrahydropyrimidin-1(2H)-yl)-[1,1′-biphenyl]-3-yl)piperidine-2,6-dione] are 97%, greater than 90%, 6.45 nM and no more than 100 nM.
As to `O=C1CCC(c2cccc(-c3ccc(N4CCCCC4=O)nc3)c2Cl)C(=O)N1` (stereo not drawn) [Compound 450, 3-(2-chloro-3-(6-(2-oxopiperidin-1-yl)pyridin-3-yl)phenyl)piperidine-2,6-dione], the Dmax by setting is: (read-out: VAV1 Dmax %) 75.9%; (read-out: VAV1 Dmax %, class) 60 to 90%. Moreover, the DC50 (read-out: VAV1 DC50) was determined as 173 nM and the DC50 under setting [1] fell in the range of 100 to 1000 nM.
Regarding `O=C1CCC(c2cccc(-c3ccc(N4CCCOC4=O)nc3)c2Cl)C(=O)N1` (stereo not drawn) [Compound 451, 3-(2-chloro-3-(6-(2-oxo-1,3-oxazinan-3-yl)pyridin-3-yl)phenyl)piperidine-2,6-dione], the Dmax was 64% (read-out: VAV1 Dmax %) and 60 to 90% (read-out: VAV1 Dmax %, class). Besides, the DC50 is, setting by setting: (read-out: VAV1 DC50) 542 nM; under setting [1], 100 to 1000 nM.
The corresponding values for `O=C1CCC(c2cccc(-c3ccc(N4CCCOC4=O)c(F)c3)c2Cl)C(=O)N1` (stereo not drawn) [Compound 452, 3-(2-chloro-3′-fluoro-4′-(2-oxo-1,3-oxazinan-3-yl)-[1,1′-biphenyl]-3-yl)piperidine-2,6-dione] are 94%, greater than 90%, 21.5 nM and no more than 100 nM.
As to `O=C1CCC(c2cccc(-c3ccc(Cc4cccnn4)cc3)c2Cl)C(=O)N1` (stereo not drawn) [Compound 453, 3-(2-chloro-4′-(pyridazin-3-ylmethyl)-[1,1′-biphenyl]-3-yl)piperidine-2,6-dione], the Dmax reads like this: (read-out: VAV1 Dmax %) 97.8%; (read-out: VAV1 Dmax %, class) greater than 90%. The DC50 (read-out: VAV1 DC50) was determined as 13.4 nM and the DC50 under setting [1] is no more than 100 nM.
